Laboratory results published in patent US20080090749A1 (priority 2005, published 2008).
Several values for one entry are separate records, joined by “and”; a condition that tells them apart may be missing. Equal entries are not always repeated.

Columns and labels:
[1] = system: diarrhea under stress loading using a stress cage; assay: Stress loading using a stress cage, histidine diet (Example 1), fecal examination; assay type: in vivo, Wistar rats; details: for Number of individuals with diarrhea / Number of individuals with soft feces / Number of individuals without diarrhea or soft feces: 8 individuals examined
Experimental: (§1) After being preliminarily reared on an ordinary diet (CRF-1, Charles River Japan Inc.) for 1 week, Wistar rats (4 weeks of age, male) were fed an ordinary diet (control group) or a histidine diet prepared by mixing finely milled L-histidine hydrochloride at 2% by weight in the ordinary diet (histidine dosing group) for 2 weeks. In the mornings of day 15, day 16, and day 17 after the start of the rearing with the histidine diet, stress loading was performed by the method described below, and the feces excreted by the rats were examined for weight and description.
After being allowed to stand in a small individual cage (13.5×27×12 cm) for about 2 hours, each rat was transferred to a constraint (stress) cage having a size such that the rat cannot move (5×17×4 cm), and further allowed to stand for 2 hours, whereby stress loading was performed (control stress group, histidine dosing stress group). The feces excreted by the rat were examined for description, number, and weight. The stress loading and fecal examination were performed on each individual for three consecutive days.
(§2) Eight rats were used for each group.

Noradrenaline = Noradrenaline content in the large intestine of stress-loaded rats by LC/MS; assay type: in vivo, Wistar rats; details: Stress+ His diet+; day 17; N = 8
Experimental: as §1
(§3) The large intestines of stress-loaded rats were collected and frozen in liquid nitrogen on day 17, and stored at −80° C. until use. Extracted from the frozen samples by the following protocol were noradrenaline, histamine, serotonin and 3-methylhistidine, which were then quantified by LC/MS.
(§4) Each frozen rat tissue (large intestine) stored at −80° C. as disrupted using CryoPress (manufactured by Microtec Co., Ltd.), and 1 mL of methanol per 100 mg at −80° C. was added. The mixture was disrupted using FastPrep (30 sec×2 times), and 0.8 mL of the disruption liquid was recovered. 1 mL of cold chloroform was added thereto, and the mixture was stirred using Vortex for 1 minute, after which 1 mL of cold H2O was added. After the mixture was further stirred using Vortex for 1 minute, it was allowed to stand for 30 minutes. […]

Histamine = Histamine content in the large intestine of stress-loaded rats by LC/MS; assay type: in vivo, Wistar rats
Experimental: as §1, §3, §4

Serotonin = Serotonin content in the large intestine of stress-loaded rats by LC/MS; assay type: in vivo, Wistar rats
Experimental: as §1, §3, §4

3-methylhistidine = 3-methylhistidine content in the large intestine of stress-loaded rats by LC/MS (index for proteolysis); assay type: in vivo, Wistar rats
Experimental: as §1, §3, §4

[2] = system: diarrhea due to stress loading using a stress cage; assay: Stress loading using a stress cage, histidine bolus oral administration (Example 2), fecal examination; assay type: in vivo, Wistar rats
Experimental: After being preliminarily reared on an ordinary diet (CRF-1, Charles River Japan Inc.) for 1 week, Wistar rats (6 weeks of age, male) received histidine given by gavage at a frequency of twice a day (morning and evening) on day 8 and day 9 after the start of the preliminary rearing. A 5 mL dosing volume of 0.5% methylcellulose solution (control solution) for the control group, or a solution of L-histidine hydrochloride dissolved (partially suspended) in 0.5% methylcellulose solution to a content ratio of 1.5 g per kg body weight of each rat for the histidine dosing group, was orally administered using a sonde. Stress loading was performed using a stress cage in the same manner as Example 1. That is, after each rat was transferred to a small individual cage (13.5×27×12 cm) in the morning of day 10, and allowed to stand for 2 hours, the same histidine solution or control solution as those given on the previous day were once orally administered. After being allowed to stand in a small individual cage for 2 hours, each rat was transferred to a constraint cage (5×17×4 cm) and allowed to stand for 1 hour, whereby stress loading was performed. The feces excreted by the rat were examined for description, number, and weight.
as §2

[3] = system: soft feces due to stress loading by front leg constraint; assay: Stress loading by front leg constraint, histidine oral administration (Example 3), fecal examination; assay type: in vivo, Wistar rats
Experimental: After being preliminarily reared on an ordinary diet (CRF-1, Charles River Japan Inc.) for 1 week, Wistar rats (6 weeks of age, male) received histidine given by gavage at a frequency of twice a day (morning and evening) on day 8 and day 9 as described above. A 5 mL dosing volume of 0.5% methylcellulose solution (control solution) for the control group, or a solution of L-histidine hydrochloride dissolved (partially suspended) in 0.5% methylcellulose solution to a content ratio of 1.5 g per kg body weight of each rat for the histidine dosing group, was orally administered using a sonde.
In the morning of day 10, the same histidine solution or control solution as those given on the previous day was once orally administered. One hour later, under low-dose ether anesthesia, stress loading was performed by constraining the front legs with a tape of the Scotch brand. After each animal was allowed to stand for 1 hour in an individual cage, the feces excreted by the rat were examined for description, number, and weight.
as §2

cholera toxin = details: cited from earlier work
[4] = system: ulcerative damage of the intestine; details: reported; cited from earlier work
[5] = individual rats, 2% L-histidine hydrochloride diet, stress cage, stress day 1, hydrochloride
[6] = individual rats, 2% L-histidine hydrochloride diet, stress cage, stress day 2, hydrochloride
[7] = individual rats, 2% L-histidine hydrochloride diet, stress cage, stress day 3, hydrochloride
[8] = stress loading Day 1, histidine diet
[9] = stress loading Day 2, histidine diet
[10] = stress loading Day 3, histidine diet
[11] = Stress+ His diet+, day 17, N = 8
[12] = 8 individuals examined, histidine bolus oral administration
[13] = group mean, 8 rats, 1.5 g per kg oral, stress cage 1 hour
[14] = individual rats, 1.5 g per kg oral, stress cage 1 hour, hydrochloride
[15] = individual rats, 1.5 g per kg oral, front leg constraint 1 hour, hydrochloride

Cl.N[C@@H](Cc1c[nH]cn1)C(=O)O [Histidine, L-histidine hydrochloride]
effect of histidine administration on diarrhea ([1]; histidine diet, stress cage, compared to the control group): suppressive effect | Number of feces Day 1 normal feces ([1]; individual rats, 2% L-histidine hydrochloride diet 2 weeks, stress cage 2 hours, stress day 1, hydrochloride): 6 and 3 (2×) and 1 and 11 and 10 and 5 and 0 | Fecal weight Total weight Day 1 [1, 5]: 1.01 g and 1.65 g and 1.94 g and 2.23 g and 2.82 g and 2.46 g and 1.77 g and 0.00 g | Number of feces Day 1 diarrhea [1, 5]: 0 (7×) and 1 | Number of feces Day 1 soft feces [1, 5]: 0 (3×) and 1 (2×) and 3 (3×) | Fecal weight Total weight Day 2 [1, 6]: 0.58 g and 0.56 g and 4.02 g and 2.38 g and 0.25 g and 3.48 g and 1.28 g and 1.26 g | Number of feces Day 2 diarrhea [1, 6]: 0 (7×) and 2 | Number of feces Day 2 normal feces [1, 6]: 4 and 2 and 10 and 8 and 3 and 5 and 6 (2×) | Number of feces Day 2 soft feces [1, 6]: 0 (4×) and 3 and 2 and 5 and 1 | Fecal weight Total weight Day 3 [1, 7]: 1.15 g and 0.46 g and 3.27 g and 1.00 g and 2.22 g and 3.99 g and 1.64 g and 0.41 g | Number of feces Day 3 diarrhea [1, 7]: 0 (7×) and 1 | Number of feces Day 3 normal feces [1, 7]: 6 (5×) and 1 and 4 and 3 | Number of feces Day 3 soft feces [1, 7]: 0 (3×) and 1 (2×) and 4 (2×) and 5 | Number of individuals with diarrhea [1, 8]: 1 | Number of individuals with soft feces [1, 8]: 5 | Number of individuals without diarrhea or soft feces [1, 8]: 3 | Number of individuals with diarrhea [1, 9]: 1 | Number of individuals with soft feces [1, 9]: 4 | Number of individuals without diarrhea or soft feces [1, 9]: 4 | Number of individuals with diarrhea [1, 10]: 1 | Number of individuals with soft feces [1, 10]: 5 | Number of individuals without diarrhea or soft feces [1, 10]: 3 | Noradrenaline content in the large intestine (Tissue wet weight) (Noradrenaline): 0.96 nmol/g | Histamine content in the large intestine (Tissue wet weight) (Histamine; [11]): 6.61 nmol/g | effect on increase of histamine tissue content in the large intestine due to stress loading (Histamine; histidine diet): tended to be suppressed | Serotonin content in the large intestine (Tissue wet weight) (Serotonin; [11]): 6.63 nmol/g | effect on increase of serotonin tissue content in the large intestine due to stress loading (Serotonin; histidine diet): tended to be suppressed | 3-methylhistidine content in the large intestine (Tissue wet weight) (3-methylhistidine; [11]): 0.13 nmol/g | effect on increase of 3-methylhistidine with stress loading (3-methylhistidine; histidine diet): suppressed | Number of individuals with diarrhea [2, 12]: 0 | Number of individuals with soft feces [2, 12]: 8 | Number of individuals without diarrhea or soft feces [2, 12]: 0 | effect of histidine administration on diarrhea ([2]; bolus oral administration, stress cage, compared to the control group): suppressive effect | Number of normal feces, Mean [2, 13]: 0.125 | Number of soft feces, Mean [2, 13]: 6 | Total fecal weight, Mean [2, 13]: 1.64 g | Onset of diarrhea, individuals in group ([2]; group of 8 rats, 1.5 g per kg oral, stress cage 1 hour): 0 individual | Onset of diarrhea ([2]; individual rats, 1.5 g per kg oral, stress cage 1 hour): none | Number of normal feces [2, 14]: 0 (7×) and 1 | Number of soft feces [2, 14]: 12 and 8 and 3 and 5 and 6 (2×) and 4 (2×) | Total fecal weight [2, 14]: 2.379 g and 2.7 g and 0.852 g and 2.077 g and 1.515 g and 1.975 g and 0.72 g and 0.94 g | Onset of diarrhea, group line ([3]; Mean line of group, 8 rats): 0 | Mean number of normal feces ([3]; Table 8, front leg constraint): 0.88 | Mean number of soft feces ([3]; Table 8, front leg constraint): 3.75 | Total fecal weight, Mean ([3]; group mean, 8 rats): 1.68 | Number of normal feces, Mean ([3]; group mean, 8 rats, Table 7): 0.88 | Number of soft feces, Mean ([3]; group mean, 8 rats, Table 7): 3.75 | Onset of diarrhea ([3]; individual rats, 1.5 g per kg oral, front leg constraint 1 hour): none | Number of normal feces [3, 15]: 4 and 2 and 0 (5×) and 1 | Number of soft feces [3, 15]: 5 (2×) and 2 (2×) and 0 and 6 (2×) and 4 | Total fecal weight [3, 15]: 2.12 and 0.73 and 1.03 and 0 and 2.18 and 2.47 and 2.63 and 2.31 | effect of histidine administration on diarrhea ([3]; oral administration, front leg constraint, compared to the control group): suppressive effect | action on the gut water secretion by cholera toxin (cholera toxin): suppressive action | effect on ulcerative damage of the intestine by infectious microorganisms and drugs [4]: Mitigates
